Several values for one entry are separate records, joined by “and”; a condition that tells them apart may be missing. Equal entries are not always repeated.
Experiment: xn = mol fraction of the nth substance listed

CC(C)=O + Cc1ccccc1
Conditions | viscosity
293.15 K, 101.32 kPa, x2 = 0.072 | 0.3349 mPa·s
293.15 K, 101.32 kPa, x2 = 0.148 | 0.3525 mPa·s
293.15 K, 101.32 kPa, x2 = 0.229 | 0.374 mPa·s
293.15 K, 101.32 kPa, x2 = 0.317 | 0.3966 mPa·s
293.15 K, 101.32 kPa, x2 = 0.409 | 0.42 mPa·s
293.15 K, 101.32 kPa, x2 = 0.509 | 0.4506 mPa·s
293.15 K, 101.32 kPa, x2 = 0.617 | 0.4775 mPa·s
293.15 K, 101.32 kPa, x2 = 0.735 | 0.5095 mPa·s
293.15 K, 101.32 kPa, x2 = 0.862 | 0.5472 mPa·s
298.15 K, 101 kPa, x1 = 0.0233 | 0.548 mPa·s
298.15 K, 101 kPa, x1 = 0.0652 | 0.537 mPa·s
298.15 K, 101 kPa, x1 = 0.1349 | 0.518 mPa·s
298.15 K, 101 kPa, x1 = 0.2009 | 0.499 mPa·s
298.15 K, 101 kPa, x1 = 0.301 | 0.475 mPa·s
298.15 K, 101 kPa, x1 = 0.3387 | 0.465 mPa·s
298.15 K, 101 kPa, x1 = 0.412 | 0.445 mPa·s
298.15 K, 101 kPa, x1 = 0.5133 | 0.419 mPa·s
298.15 K, 101 kPa, x1 = 0.515 | 0.418 mPa·s
298.15 K, 101 kPa, x1 = 0.6017 | 0.396 mPa·s
298.15 K, 101 kPa, x1 = 0.6968 | 0.372 mPa·s
298.15 K, 101 kPa, x1 = 0.7979 | 0.349 mPa·s
298.15 K, 101 kPa, x1 = 0.8969 | 0.325 mPa·s
298.15 K, 101 kPa, x2 = 0.0702 | 0.3418 mPa·s and 0.3418 mPa·s
298.15 K, 101 kPa, x2 = 0.1468 | 0.3759 mPa·s and 0.3759 mPa·s
298.15 K, 101 kPa, x2 = 0.2269 | 0.4076 mPa·s and 0.4076 mPa·s
298.15 K, 101 kPa, x2 = 0.3135 | 0.4383 mPa·s and 0.4383 mPa·s
298.15 K, 101 kPa, x2 = 0.4051 | 0.4662 mPa·s and 0.4662 mPa·s
298.15 K, 101 kPa, x2 = 0.5072 | 0.4893 mPa·s and 0.4893 mPa·s
298.15 K, 101 kPa, x2 = 0.616 | 0.5092 mPa·s and 0.5092 mPa·s
298.15 K, 101 kPa, x2 = 0.7355 | 0.5293 mPa·s and 0.5293 mPa·s
298.15 K, 101 kPa, x2 = 0.8629 | 0.5462 mPa·s and 0.5462 mPa·s
298.15 K, 101.32 kPa, x2 = 0.073 | 0.3172 mPa·s
298.15 K, 101.32 kPa, x2 = 0.148 | 0.3344 mPa·s
298.15 K, 101.32 kPa, x2 = 0.229 | 0.353 mPa·s
298.15 K, 101.32 kPa, x2 = 0.317 | 0.3764 mPa·s
298.15 K, 101.32 kPa, x2 = 0.41 | 0.3994 mPa·s
298.15 K, 101.32 kPa, x2 = 0.509 | 0.4236 mPa·s
298.15 K, 101.32 kPa, x2 = 0.618 | 0.4521 mPa·s
298.15 K, 101.32 kPa, x2 = 0.735 | 0.4807 mPa·s
298.15 K, 101.32 kPa, x2 = 0.862 | 0.5138 mPa·s
303.15 K, 101 kPa, x2 = 0.0702 | 0.3218 mPa·s and 0.3218 mPa·s
303.15 K, 101 kPa, x2 = 0.0929 | 0.3192 mPa·s
303.15 K, 101 kPa, x2 = 0.1468 | 0.3527 mPa·s and 0.3527 mPa·s
303.15 K, 101 kPa, x2 = 0.2269 | 0.381 mPa·s and 0.381 mPa·s
303.15 K, 101 kPa, x2 = 0.3135 | 0.4098 mPa·s and 0.4098 mPa·s
303.15 K, 101 kPa, x2 = 0.3674 | 0.4169 mPa·s
303.15 K, 101 kPa, x2 = 0.4051 | 0.4358 mPa·s and 0.4358 mPa·s
303.15 K, 101 kPa, x2 = 0.5072 | 0.4553 mPa·s and 0.4553 mPa·s
303.15 K, 101 kPa, x2 = 0.616 | 0.475 mPa·s and 0.475 mPa·s
303.15 K, 101 kPa, x2 = 0.7355 | 0.4947 mPa·s and 0.4947 mPa·s
303.15 K, 101 kPa, x2 = 0.8102 | 0.4984 mPa·s
303.15 K, 101 kPa, x2 = 0.8629 | 0.5144 mPa·s and 0.5144 mPa·s
308.15 K, 101 kPa, x2 = 0.0702 | 0.3021 mPa·s and 0.3021 mPa·s
308.15 K, 101 kPa, x2 = 0.1468 | 0.3267 mPa·s and 0.3267 mPa·s
308.15 K, 101 kPa, x2 = 0.2269 | 0.3517 mPa·s and 0.3517 mPa·s
308.15 K, 101 kPa, x2 = 0.3135 | 0.3785 mPa·s and 0.3785 mPa·s
308.15 K, 101 kPa, x2 = 0.4051 | 0.404 mPa·s and 0.404 mPa·s
308.15 K, 101 kPa, x2 = 0.5072 | 0.425 mPa·s and 0.425 mPa·s
308.15 K, 101 kPa, x2 = 0.616 | 0.4443 mPa·s and 0.4443 mPa·s
308.15 K, 101 kPa, x2 = 0.7355 | 0.4638 mPa·s and 0.4638 mPa·s
308.15 K, 101 kPa, x2 = 0.8629 | 0.4848 mPa·s and 0.4848 mPa·s
308.15 K, 101.32 kPa, x2 = 0.073 | 0.2891 mPa·s
308.15 K, 101.32 kPa, x2 = 0.149 | 0.3036 mPa·s
308.15 K, 101.32 kPa, x2 = 0.23 | 0.3204 mPa·s
308.15 K, 101.32 kPa, x2 = 0.318 | 0.3407 mPa·s
308.15 K, 101.32 kPa, x2 = 0.411 | 0.3615 mPa·s
308.15 K, 101.32 kPa, x2 = 0.51 | 0.3829 mPa·s
308.15 K, 101.32 kPa, x2 = 0.619 | 0.4072 mPa·s
308.15 K, 101.32 kPa, x2 = 0.736 | 0.4335 mPa·s
308.15 K, 101.32 kPa, x2 = 0.862 | 0.463 mPa·s
313.15 K, 101 kPa, x2 = 0.0929 | 0.2858 mPa·s
313.15 K, 101 kPa, x2 = 0.3674 | 0.3952 mPa·s
313.15 K, 101 kPa, x2 = 0.8102 | 0.4622 mPa·s
318.15 K, 101.32 kPa, x2 = 0.073 | 0.2628 mPa·s
318.15 K, 101.32 kPa, x2 = 0.149 | 0.2767 mPa·s
318.15 K, 101.32 kPa, x2 = 0.23 | 0.2923 mPa·s
318.15 K, 101.32 kPa, x2 = 0.319 | 0.3081 mPa·s
318.15 K, 101.32 kPa, x2 = 0.412 | 0.3264 mPa·s
318.15 K, 101.32 kPa, x2 = 0.511 | 0.347 mPa·s
318.15 K, 101.32 kPa, x2 = 0.61 | 0.367 mPa·s
318.15 K, 101.32 kPa, x2 = 0.737 | 0.3916 mPa·s
318.15 K, 101.32 kPa, x2 = 0.863 | 0.4162 mPa·s
323.15 K, 101 kPa, x2 = 0.0929 | 0.2564 mPa·s
323.15 K, 101 kPa, x2 = 0.3674 | 0.3538 mPa·s
323.15 K, 101 kPa, x2 = 0.8102 | 0.4467 mPa·s

— the CheMixHub viscosity set
